From patent publication US7655654B2, “Farnesyl transferase inhibiting tricyclic quinazoline derivatives substituted with carbon-linked imidazoles or triazoles” (Janssen Pharmaceutica NV, priority 2002, dated 2010)

How the values were obtained:
[1] = target: farnesyl protein transferase (Homo sapiens, UniProt P49354+P49356); assay: In vitro assay for inhibition of farnesyl protein transferase; type: biochemical; settings: for inhibition at 0.1 µM / % of inhibition at 10^−7 M: at 10^−7 M; for IC50 / Enzyme activity pIC50: negative log value of the IC50-value; for IC50: read-out: Enzyme activity pIC50 (converted)
Description: Example C.1: “In Vitro Assay for Inhibition of Farnesyl Protein Transferase”:
An in vitro assay for inhibition of farnesyl transferase was performed essentially as described in WO 98/40383, pages 33-34. Herein the effects of test compounds are expressed as pIC50 (the negative log value of the IC50-value) and as % of inhibition at 10^−7 M (see Table F-2)

Compound | melting point [°C] | inhibition at 0.1 µM [1] [%] | IC50 [1] [nM] | % of inhibition at 10^−7 M [1] [%] | Enzyme activity pIC50 [1]
CCOC(=O)CN1c2ccc(C(O)(c3ccc(OC)cc3)c3cncn3C)cc2C(c2cccc(Cl)c2)n2nnnc21 (mixture of isomers) [Compound 13] | 126 | 80 | 25.4 |  | 
COc1ccc(C(O)(c2ccc3c(c2)C(c2cccc(Cl)c2)n2nnnc2N3CC2CC2)c2cncn2C)cc1 (stereo not drawn) [Compound 9] | 121 | 82 | 20.6 |  | 
CN1c2ccc(C(O)(c3ccc(I)cc3)c3nncn3C)cc2C(c2cccc(Cl)c2)n2nnnc21 (mixture of isomers) [Compound 22] | 181 | 57 | < 100 |  | 
Cn1cncc1[C@@](N)(c1ccc(Cl)cc1)c1ccc2c(c1)C(c1cccc(Cl)c1)n1nnnc1N2 (single isomer, unassigned) [Compound 12] | 162 |  |  | 42 | <7
CN1c2ccc(C(O)(c3ccc(Cl)cc3)c3cncn3C)cc2C(c2cccc(Cl)c2)n2nnnc21 (mixture of isomers) [Compound 19] |  | 92 | 9.71 |  | 
COc1ccc(C(O)(c2ccc3c(c2)C(c2cccc(Cl)c2)n2nnnc2N3C)c2cncn2C)cc1 (mixture of isomers) [Compound 15] | 144 | 88 | 16.6 |  | 
Cc1ccc(C(N)(c2ccc3c(c2)C(c2cccc(Cl)c2)n2nnnc2N3)c2cncn2C)cc1 (single isomer, unassigned) [Compound 5, 9-(3-chlorophenyl)-4,9-dihydro-α-(1-methyl-1H-imidazol-5-yl)-α-(4-methylphenyl)-tetrazolo[5,1-b]quinazoline-7-methanamine] |  |  | < 1 | 99 | 
Cn1cncc1[C@](N)(c1ccc(Cl)cc1)c1ccc2c(c1)C(c1cccc(Cl)c1)n1nnnc1N2 (stereo partly drawn) [Compound 24] | 183 |  | 11.7 | 88 | 
COc1ccc(C(O)(c2ccc3c(c2)C(c2cccc(Cl)c2)n2nnnc2N3Cc2ccc(C#N)cc2)c2cncn2C)cc1 (mixture of isomers) [Compound 14] | 164 | 74 | 18.6 |  | 
Cn1cncc1[C@](N)(c1ccc(Cl)cc1)c1ccc2c(c1)C(c1cccc(Cl)c1)n1nnnc1N2 (stereo partly drawn) [Compound 23] | > 250 | 98 | 2.54 |  | 
COc1ccc(C(c2ccc3c(c2)C(c2cccc(Cl)c2)n2nnnc2N3C)c2cncn2C)cc1 (mixture of isomers) [Compound 20] | 108 | 91 | 9.2 |  | 
COc1ccc(C(O)(c2ccc3c(c2)C(c2cccc(Cl)c2)n2nnnc2N3C)c2cncn2C)cc1 (mixture of isomers) [Compound 6] |  |  | 14.1 | 90 | 
CC(C)OC(=O)c1ccc(C(O)(c2ccc3c(c2)C(c2cccc(Cl)c2)n2nnnc2N3C)c2cncn2C)cc1 (mixture of isomers) [Compound 25] | 165 | 66 | < 100 |  | 
CCOC(c1ccc(Cl)cc1)(c1ccc2c(c1)C(c1cccc(Cl)c1)n1nnnc1N2)c1cncn1C (stereo not drawn) [Compound 10] |  | 43 | > 100 |  | 

Further lines, results first:

melting point [°C] | inhibition at 0.1 µM [1] [%] | IC50 [1] [nM] | % of inhibition at 10^−7 M [1] [%] | Enzyme activity pIC50 [1] | Compound
228 | 78 | 19.1 |  |  | CN1c2ccc(C(O)(c3ccc(I)cc3)c3cncn3C)cc2C(c2cccc(Cl)c2)n2nnnc21 (mixture of isomers) [Compound 21]
> 260 | 81 | 25.4 |  |  | Cn1cncc1C(O)(c1ccc(Cl)cc1)c1ccc2c(c1)C(c1cccc(Cl)c1)n1nnnc1N2 (stereo not drawn) [Compound 1, 9-(3-chlorophenyl)-α-(4-chlorophenyl)4,9-dihydro-α-(1-methyl-1H-imidazol-5-yl)-tetrazolo[5,1-b]quinazoline-7-methanol]
195 |  |  | 42 | <7 | Cn1cnnc1C(O)(c1ccc(I)cc1)c1ccc2c(c1)C(c1cccc(Cl)c1)n1nnnc1N2 (stereo not drawn) [Compound 17]
225 | 76 | 29.9 |  |  | Cn1cncc1C(O)(c1ccc(I)cc1)c1ccc2c(c1)C(c1cccc(Cl)c1)n1nnnc1N2 (mixture of isomers) [Compound 18]
176 |  | 12.4 | 88 |  | COc1ccc(C(O)(c2ccc3c(c2)C(c2cccc(Cl)c2)n2nnnc2N3)c2cncn2C)cc1 (single isomer, unassigned) [Compound 8]
180 | 96 | 1.77 |  |  | Cn1cncc1C(O)(c1ccc(F)cc1)c1ccc2c(c1)C(c1cccc(Cl)c1)n1nnnc1N2 (stereo not drawn) [Compound 2, 9-(3-chlorophenyl)-α-(4-fluorophenyl)4,9-dihydro-α-(1-methyl-1H-imidazol-5-yl)-tetrazolo[5,1-b]quinazoline-7-methanol]
242 | 46 | > 100 |  |  | Cn1cncc1[C@@](N)(c1ccc(Cl)cc1)c1ccc2c(c1)C(c1cccc(Cl)c1)n1nnnc1N2 (single isomer, unassigned) [Compound 11]
226 | 45 | > 100 |  |  | Cn1cnnc1C(O)(c1ccc(I)cc1)c1ccc2c(c1)C(c1cccc(Cl)c1)n1nnnc1N2 (mixture of isomers) [Compound 16]
> 260 |  | < 100 | 64 |  | COc1ccc(C(O)(c2ccc3c(c2)C(c2cccc(Cl)c2)n2nnnc2N3)c2cncn2C)cc1 (single isomer, unassigned) [Compound 7]
 |  | 34.6 | 74 |  | Cc1ccc(C(N)(c2ccc3c(c2)C(c2cccc(Cl)c2)n2nnnc2N3)c2cncn2C)cc1 (single isomer, unassigned) [Compound 4, 9-(3-chlorophenyl)-4,9-dihydro-α-(1-methyl-1H-imidazol-5-yl)-α-(4-methylphenyl)-tetrazolo[5,1-b]quinazoline-7-methanamine]
 | 80 | 23.3 |  |  | COc1ccc(C(O)(c2ccc3c(c2)C(c2cccc(Cl)c2)n2nnnc2N3)c2cncn2C)cc1 (stereo not drawn) [Compound 3, 9-(3-chlorophenyl)-4,9-dihydro-α-(4-methoxyphenyl)-α-(1-methyl-1H-imidazol-5-yl)-tetrazolo[5,1-]quinazoline-7-methanol]
